# Experiments:
# [1] = tested on: cotton; assay: Test B preemergence/postemergence greenhouse plant response rating 0 to 10; format: in vivo, Gossypium hirsutum; settings: 0 to 10 scale
# How it was run: (§1)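 Both application timings were run together: seeds got compound preemergence, and established seedlings (two to eighteen cm) got it postemergence. Non-phytotoxic solvent carried the chemical. Ratings are visual, versus controls, at twelve to sixteen days.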
# [2] = tested on: rape; assay: Test C preemergence/postemergence greenhouse plant response rating 0 to 100; format: in vivo, Brassica napus; settings: POSTEMERGENCE; for Plant response rating, Rape: 0 to 100 scale
# Source text: (§2) The compounds evaluated in this test were formulated in a non-phytoxic solvent and applied to the soil surface before plant seedlings emerged (preemergence application), to water that covered the soil surface (flood application), and to plants that were in the one-to-four leaf stage (postemergence application). A sandy loam soil was used for the preemergence and postemergence tests, while a silt loam soil was used in the flood test. Water depth was approximately 2.5 cm for the flood test and was maintained at this level for the duration of the test. Plant species in the preemergence and postemergence tests consisted of barley (Hordeum vulgare), bedstraw (Galium aparine), blackgrass (Alopecurus myosuroides), chickweed (Stellaria media), corn (Zea mays), cotton (Gossypium hirsutum), crabgrass (Digitaria sanguinalis), downy brome (Bromus tectorum), giant foxtail (Setaria faberii), lambsquarters (Chenopodium album), morningglory (Ipomoea hederacea), pigweed ([…]), rape (Brassica napus), ryegrass (Lolium multiflorum), sorghum (Sorghum bicolor), soybean (Glycine max), speedwell (Veronica persica), sugar beet (Beta vulgaris), velvetleaf (Abutilon theophrasti), wheat (Triticum aestivum), wild buckwheat (Polygonum convolvulus), and wild oat (Avena fatua). All plant species were planted one day before application of the compound for the preemergence portion-of this test. Plantings of these species were adjusted to produce plants of appropriate size for the post-emergence portion of the test. […] All plant species were grown using normal greenhouse practices. Visual evaluations of injury expressed on treated plants, when compared to untreated controls, were recorded approximately fourteen to twenty one days after application of the test compound. […] A dash (-) response means no test result.
# [3] = tested on: velvetleaf; assay: Test B preemergence/postemergence greenhouse plant response rating 0 to 10; format: in vivo, Abutilon theophrasti; settings: 0 to 10 scale
# How it was run: as §1
# [4] = tested on: wild oat; assay: Test C preemergence/postemergence greenhouse plant response rating 0 to 100; format: in vivo, Avena fatua; settings: POSTEMERGENCE; for Plant response rating, Wild oat: 0 to 100 scale
# Source text: as §2
# [5] = tested on: morningglory; assay: Test B preemergence/postemergence greenhouse plant response rating 0 to 10; format: in vivo, Ipomoea hederacea; settings: 0 to 10 scale
# How it was run: as §1
# [6] = tested on: wheat; assay: as above; format: in vivo, Triticum aestivum; settings: 0 to 10 scale
# How it was run: as §1
# [7] = tested on: blackgrass; assay: Test C preemergence/postemergence greenhouse plant response rating 0 to 100; format: in vivo, Alopecurus myosuroides; settings: POSTEMERGENCE; for Plant response rating, Blackgrass: 0 to 100 scale
# Source text: as §2
# [8] = tested on: barnyardgrass; assay: Test B preemergence/postemergence greenhouse plant response rating 0 to 10; format: in vivo, Echinochloa crus-galli; settings: 0 to 10 scale
# How it was run: as §1
# [9] = tested on: crabgrass; assay: Test C preemergence/postemergence greenhouse plant response rating 0 to 100; format: in vivo, Digitaria sanguinalis; settings: POSTEMERGENCE; for Plant response rating, Crabgrass: 0 to 100 scale
# Source text: as §2
# [10] = tested on: bedstraw; assay: as above; format: in vivo, Galium aparine; settings: POSTEMERGENCE; for Plant response rating, Bedstraw: 0 to 100 scale
# Source text: as §2
# [11] = tested on: giant foxtail; assay: as above; format: in vivo, Setaria faberii; settings: POSTEMERGENCE; for Plant response rating, Giant foxtail: 0 to 100 scale
# Source text: as §2
# [12] = tested on: wheat; assay: as above; format: in vivo, Triticum aestivum; settings: POSTEMERGENCE; for Plant response rating, Wheat: 0 to 100 scale
# Source text: as §2
compound,measurement,setting,value
C#CCN1C(=O)COc2cc(F)c(-c3nn4c(c3Cl)CCCC4)cc21 [Compound 34],"Plant response rating, Cotton","[1]; POSTEMERGENCE, Rate 10 g/ha",10
same,"Plant response rating, Cotton","[1]; POSTEMERGENCE, Rate 50 g/ha",10
same,"Plant response rating, Cotton","[1]; PREEMERGENCE, Rate 10 g/ha",0
same,"Plant response rating, Cotton","[1]; PREEMERGENCE, Rate 50 g/ha",0
same,"Plant response rating, Rape",[2]; 62 g/ha,100
same,"Plant response rating (0 to 100), Rape",[2]; Rate 1 g/ha,85
same,"Plant response rating (0 to 100), Rape",[2]; Rate 4 g/ha,100
same,"Plant response rating (0 to 100), Rape",[2]; Rate 16 g/ha,100
same,"Plant response rating, Velvetleaf","[3]; POSTEMERGENCE, Rate 10 g/ha",10
same,"Plant response rating, Velvetleaf","[3]; POSTEMERGENCE, Rate 50 g/ha",1
same,"Plant response rating, Velvetleaf","[3]; PREEMERGENCE, Rate 50 g/ha",10
same,"Plant response rating, Wild oat",[4]; 62 g/ha,30
same,"Plant response rating (0 to 100), Wild oat",[4]; Rate 1 g/ha,10
same,"Plant response rating (0 to 100), Wild oat",[4]; Rate 4 g/ha,20
same,"Plant response rating (0 to 100), Wild oat",[4]; Rate 16 g/ha,20
same,"Plant response rating, Morningglory","[5]; POSTEMERGENCE, Rate 10 g/ha",9
same,"Plant response rating, Morningglory","[5]; POSTEMERGENCE, Rate 50 g/ha",1
same,"Plant response rating, Morningglory","[5]; PREEMERGENCE, Rate 50 g/ha",2
same,"Plant response rating, Wheat","[6]; POSTEMERGENCE, Rate 10 g/ha",5
same,"Plant response rating, Wheat","[6]; POSTEMERGENCE, Rate 50 g/ha",5
same,"Plant response rating, Wheat","[6]; PREEMERGENCE, Rate 50 g/ha",3
same,"Plant response rating, Blackgrass",[7]; 62 g/ha,60
same,"Plant response rating (0 to 100), Blackgrass",[7]; Rate 1 g/ha,20
same,"Plant response rating (0 to 100), Blackgrass",[7]; Rate 4 g/ha,30
same,"Plant response rating (0 to 100), Blackgrass",[7]; Rate 16 g/ha,50
same,"Plant response rating, Barnyardgrass","[8]; POSTEMERGENCE, Rate 10 g/ha",4
same,"Plant response rating, Barnyardgrass","[8]; POSTEMERGENCE, Rate 50 g/ha",5
same,"Plant response rating, Barnyardgrass","[8]; PREEMERGENCE, Rate 10 g/ha",3
same,"Plant response rating, Barnyardgrass","[8]; PREEMERGENCE, Rate 50 g/ha",4
same,"Plant response rating, Crabgrass",[9]; 62 g/ha,60
same,"Plant response rating (0 to 100), Crabgrass",[9]; Rate 1 g/ha,10
same,"Plant response rating (0 to 100), Crabgrass",[9]; Rate 4 g/ha,20
same,"Plant response rating (0 to 100), Crabgrass",[9]; Rate 16 g/ha,30
same,"Plant response rating, Bedstraw",[10]; 62 g/ha,100
same,"Plant response rating (0 to 100), Bedstraw",[10]; Rate 1 g/ha,30
same,"Plant response rating (0 to 100), Bedstraw",[10]; Rate 4 g/ha,95
same,"Plant response rating (0 to 100), Bedstraw",[10]; Rate 16 g/ha,100
same,"Plant response rating, Giant foxtail",[11]; 62 g/ha,70
same,"Plant response rating (0 to 100), Giant foxtail",[11]; Rate 1 g/ha,20
same,"Plant response rating (0 to 100), Giant foxtail",[11]; Rate 4 g/ha,30
same,"Plant response rating (0 to 100), Giant foxtail",[11]; Rate 16 g/ha,40
same,"Plant response rating, Wheat",[12]; 62 g/ha,50
same,"Plant response rating (0 to 100), Wheat",[12]; Rate 1 g/ha,20
same,"Plant response rating (0 to 100), Wheat",[12]; Rate 4 g/ha,30
same,"Plant response rating (0 to 100), Wheat",[12]; Rate 16 g/ha,40
C#CC(C)Oc1cc(-c2nn3c(c2Cl)CCCC3)c(F)cc1Cl (stereo not drawn) [Compound 36],"Plant response rating, Cotton","[1]; POSTEMERGENCE, Rate 50 g/ha",9
same,"Plant response rating, Cotton","[1]; POSTEMERGENCE, Rate 200 g/ha",10
same,"Plant response rating, Cotton","[1]; PREEMERGENCE, Rate 50 g/ha",4
same,"Plant response rating, Cotton","[1]; Rate 200 g/ha, PREEMERGENCE",6
same,"Plant response rating, Rape",[2]; 62 g/ha,100
same,"Plant response rating, Rape",[2]; 125 g/ha,100
same,"Plant response rating (0 to 100), Rape",[2]; Rate 16 g/ha,85
same,"Plant response rating (0 to 100), Rape",[2]; Rate 31 g/ha,90
same,"Plant response rating, Velvetleaf","[3]; POSTEMERGENCE, Rate 50 g/ha",10
same,"Plant response rating, Velvetleaf","[3]; PREEMERGENCE, Rate 50 g/ha",8
same,"Plant response rating, Velvetleaf","[3]; Rate 200 g/ha, POSTEMERGENCE",10
same,"Plant response rating, Velvetleaf","[3]; Rate 200 g/ha, PREEMERGENCE",10
same,"Plant response rating, Wild oat",[4]; 62 g/ha,30
same,"Plant response rating, Wild oat",[4]; 125 g/ha,50
same,"Plant response rating (0 to 100), Wild oat",[4]; Rate 16 g/ha,10
same,"Plant response rating (0 to 100), Wild oat",[4]; Rate 31 g/ha,20
same,"Plant response rating, Morningglory","[5]; POSTEMERGENCE, Rate 50 g/ha",8
same,"Plant response rating, Morningglory","[5]; PREEMERGENCE, Rate 50 g/ha",0
same,"Plant response rating, Morningglory","[5]; Rate 200 g/ha, POSTEMERGENCE",10
same,"Plant response rating, Morningglory","[5]; Rate 200 g/ha, PREEMERGENCE",2
same,"Plant response rating, Wheat","[6]; POSTEMERGENCE, Rate 50 g/ha",5
same,"Plant response rating, Wheat","[6]; PREEMERGENCE, Rate 50 g/ha",5
same,"Plant response rating, Wheat","[6]; Rate 200 g/ha, POSTEMERGENCE",6
same,"Plant response rating, Wheat","[6]; Rate 200 g/ha, PREEMERGENCE",5
same,"Plant response rating, Blackgrass",[7]; 62 g/ha,50
same,"Plant response rating, Blackgrass",[7]; 125 g/ha,70
same,"Plant response rating (0 to 100), Blackgrass",[7]; Rate 16 g/ha,30
same,"Plant response rating (0 to 100), Blackgrass",[7]; Rate 31 g/ha,40
same,"Plant response rating, Barnyardgrass","[8]; POSTEMERGENCE, Rate 50 g/ha",6
same,"Plant response rating, Barnyardgrass","[8]; POSTEMERGENCE, Rate 200 g/ha",9
same,"Plant response rating, Barnyardgrass","[8]; PREEMERGENCE, Rate 50 g/ha",3
same,"Plant response rating, Barnyardgrass","[8]; Rate 200 g/ha, PREEMERGENCE",5
same,"Plant response rating, Crabgrass",[9]; 62 g/ha,50
same,"Plant response rating, Crabgrass",[9]; 125 g/ha,60
same,"Plant response rating (0 to 100), Crabgrass",[9]; Rate 16 g/ha,20
same,"Plant response rating (0 to 100), Crabgrass",[9]; Rate 31 g/ha,30
same,"Plant response rating, Bedstraw",[10]; 62 g/ha,100
same,"Plant response rating, Bedstraw",[10]; 125 g/ha,100
same,"Plant response rating (0 to 100), Bedstraw",[10]; Rate 16 g/ha,90
same,"Plant response rating (0 to 100), Bedstraw",[10]; Rate 31 g/ha,100
same,"Plant response rating, Giant foxtail",[11]; 62 g/ha,75
same,"Plant response rating, Giant foxtail",[11]; 125 g/ha,85
same,"Plant response rating (0 to 100), Giant foxtail",[11]; Rate 16 g/ha,50
same,"Plant response rating (0 to 100), Giant foxtail",[11]; Rate 31 g/ha,60
same,"Plant response rating, Wheat",[12]; 62 g/ha,50
same,"Plant response rating, Wheat",[12]; 125 g/ha,50
same,"Plant response rating (0 to 100), Wheat",[12]; Rate 16 g/ha,20
same,"Plant response rating (0 to 100), Wheat",[12]; Rate 31 g/ha,30
